We go through 7 molecules from ChEMBL document CHEMBL5360636, “Hyperelatolides A-D, Antineuroinflammatory Constituents with Unusual Carbon Skeletons from Hypericum elatoides” (J Nat Prod, 2023).

In series [1] the test system is BV-2. In words: Antineuroinflammatory activity in LPS-induced mouse BV-2 cells assessed as inhibition of NO production by griess assay. The series is classed as functional, cell-based. Background: Nitrite, measured by Griess reagent, commonly stands in for NO production.
Series [2] concerns BV-2. The series can be described thus: Cytotoxicity against mouse BV-2 cells at 20 uM by MTT assay. The series is classed as toxicity, cell-based. The note with it: bv-2, 20 µM. In general terms: Tetrazolium dyes change colour on reduction, which living cells bring about.
Series [3] concerns BV-2. In words: Antineuroinflammatory activity in LPS-induced mouse BV-2 cells assessed as downregulation of iNOS protein expression by Western blot analysis. The series is classed as functional, cell-based. Conditions: dose 2.5-10 µM. A general note: A western blot detects proteins with antibodies after separation by electrophoresis.
Series [4] deals with BV-2. In words: Antineuroinflammatory activity in LPS-induced mouse BV-2 cells assessed as reduction in nuclear NF-kappaB protein expression by Western blot analysis. The series is classed as functional, cell-based. The note with it: dose 2.5-10 µM.
For series [5], the system named is BV-2. The series can be described thus: Antineuroinflammatory activity in LPS-induced mouse BV-2 cells assessed as downregulation of COX-2 protein expression by Western blot analysis. The series is classed as functional, cell-based. The note with it: dose 2.5-10 µM.
In series [6] the test system is BV-2. The series can be described thus: Antineuroinflammatory activity in LPS-induced mouse BV-2 cells assessed as reduction in cytoplasmic NF-kappaB protein expression by Western blot analysis. The series is classed as functional, cell-based. The note with it: dose 2.5-10 µM.

Structures are written as SMILES.

As a reminder, the IC50 is the concentration at which inhibition is half-maximal. For `C[C@@H]1C[C@H]2[C@@H]3CCC4=CC(=O)C=C[C@]4(C)[C@@]3(F)[C@@H](O)C[C@]2(C)[C@@]1(O)C(=O)CO` [DEXAMETHASONE], the half-inhibitory concentration (IC50) in the series with BV-2 [1] turned out to be 2.83 µM.

As for `CC(=O)C[C@@H]1CCC(C)(C)C/C1=C/C1=CC(C)(C)OC1=O`, in the series on BV-2 [2], the Activity entry is given as “Non-Toxic”. For the same molecule, the 50% inhibitory concentration (IC50) in the series on BV-2 [1] is above 20 µM.

With `CC(=O)C[C@@H]1CCC(C)(C)C/C1=C/[C@H]1CC(=O)OC(C)(C)[C@@H]1OC(=O)c1ccccc1`, the Activity entry in the series with BV-2 [2] was “Non-Toxic”. For the same molecule, the 50% inhibitory concentration (IC50) in the series on BV-2 [1] amounted to 7.35 µM.

With `CC(=O)C[C@@H]1CCC(C)(C)C/C1=C/[C@H]1CC(=O)OC(C)(C)[C@H]1OC(=O)c1ccccc1`, the Activity entry with BV-2 [2] was “Non-Toxic”; with BV-2 [3] it was “Dose-Dependent Effect”; with BV-2 [4], “Dose-Dependent Effect”; in the series on BV-2 [5], “Dose-Dependent Effect”; in the series on BV-2 [6] it was “Dose-Dependent Effect”. Moreover, in the series on BV-2 [1], the IC50 amounted to 5.74 µM.

As to `CC(=O)C[C@@H]1CCC(C)(C)C/C1=C/[C@H]1CC(=O)O[C@H]1C(C)(C)OC(=O)c1ccccc1`, the Activity result in the series on BV-2 [2] is given as “Non-Toxic”. In addition, the 50% inhibitory concentration (IC50) with BV-2 [1] was 14.9 µM.

Take `O=c1c(O)c(-c2ccc(O)c(O)c2)oc2cc(O)cc(O)c12` [QUERCETIN]: the concentration for half-maximal inhibition (IC50) in the series with BV-2 [1] is 7.41 µM.

Consider `COc1ccc2c(c1)c(CC(=O)O)c(C)n2C(=O)c1ccc(Cl)cc1` [INDOMETHACIN], for which the half-inhibitory concentration (IC50) in the series with BV-2 [1] came out at 19.5 µM.
